Measurements published in US5827715A, “Heat resistant maltose phosphorylase, process for preparation thereof, bacteria used for preparation thereof, and methods for using the enzyme” (Showa Sangyo Co., Ltd., priority 1995, dated 1998).
Read-outs that look alike come from different tables or passages of the source.

What was measured:
[1] = biological target: T1, heat resistant maltose phosphorylase (Bacillus sp. RK-1, UniProt Q84IX5); experiment: Inhibitor test on heat resistant maltose phosphorylase activity; type: biochemical; settings: for activity at 1000 µM: read-out: Relative activity (%); for inhibition of the activity: 1 mM inhibitor, heat resistant maltose phosphorylase
Experimental: (§1) The enzymological properties of the heat resistant maltose phosphorylase of the invention are as follows. As the heat resistant maltose phosphorylase,one obtained in Example 1 and prepared from Bacillus sp. RK-1 was used.
(§2) In this connection, maltose phosphorylase activity was assayed according to the following method. An enzyme solution (0.4 ml), 0.06 ml of 0.5M potassium phosphate-citric acid buffer (pH 6.0), 0.6 ml of 2 w/v % maltose and 0.14 ml of distilled water were mixed, and reaction was carried out at 60° C. for 15 minutes and ceased by boiling for 10 minutes. Then, 0.02 ml of a sample was taken from the reaction-ceased solution, 3 ml of a reagent for glucose examination (Glucose CII-Test Wako; Wako Pure Chemical Industries, Ltd.) was added, reaction was carried at room temperature for 20 minutes, the absorbance at 505 nm was measured using a spectrophotometer, and the amount of glucose formed in the reaction solution was determined from the measured value. From the amount of the formed glucose, the amount of the enzyme necessitated to phosphorolyze 1 μmol of maltose in one minute is calculated, and was assumed to be 1 unit.

[2] = biological target: T2, heat resistant trehalose phosphorylase (Geobacillus stearothermophilus, UniProt Q8GRC3); experiment: biochemical; type: biochemical, Bacillus stearothermophilus SK-1; settings: for activity at 1000 µM: read-out: Relative activity (%); for inhibition of the activity: 1 mM inhibitor, heat resistant trehalose phosphorylase
T2 construct: heat resistant trehalose phosphorylase which Bacillus stearothermophilus SK-1 found by the present inventors produces; made in house; host or cells: Bacillus stearothermophilus SK-1 (FERM BP-5594), the producing strain itself
Description: As the heat resistant maltose phosphorylase in the above process, there can be used the same ones as in the above process for preparation of β-glucose-1-phosphoric acid can be used. As the heat resistant trehalose phosphorylase, any one can be used so long as it can produce trehalose from maltose and phosphoric acid or a phosphate salt at one of the above reaction temperatures and at one of the above pH values, with the aid of the heat resistant maltose phosphorylase. […] The SK-1 strain was first deposited on Sep. 29, 1994 with National Institute of Bioscience and Human Technology, Agency of Industrial Science and Technology, the Ministry of International Trade and Industry, Japan under an accession number of FERM P-14567, and then transferred there to deposit according to Budapest Treaty on microorganisms on Jul. 17, 1996, and is assigned an accession number of FERM BP-5594. An example of preparation of the above heat resistant trehalose phosphorylase is shown in Example 4 (crude enzyme) and Reference example 1 (purified enzyme).
(§3) In this connection, trehalose phosphorylase activity was assayed by the following method. An enzyme solution (0.4 ml), 0.06 ml of 0.5M potassium phosphate-citric acid buffer (pH 6.0), 0.6 ml of 2 w/v % trehalose and 0.14 ml of distilled water were mixed, and reaction was carried out at 60° C. for 20 minutes and ceased by boiling for 10 minutes. Then, 0.02 ml of a sample was taken from the reaction-ceased solution, 3 ml of a reagent for glucose examination (Glucose CII-Test Wako; Wako Pure Chemical Industries, Ltd.) was added, reaction was carried out at room temperature for 20 minutes, the absorbance at 505 nm was measured using a spectrophotometer, and the amount of glucose formed in the reaction solution was determined from the measured value. As to the definition of the trehalose phosphorylase activity, the amount of the enzyme necessitated to phosphorolyze 1 μmol of trehalose in one minute under the above assay conditions was assumed to be 1 unit.

[3] = biological target: T1, heat resistant maltose phosphorylase; experiment: Substrate specificity of heat resistant maltose phosphorylase (phosphorolysis reaction, glucose formed); type: biochemical; parameters: Relative activity (%): concentration or dose not given beside the values; settings: for Relative activity (%): each substance as substrate of phosphorolysis by heat resistant maltose phosphorylase, maltose = 100; for formation of glucose: phosphorolysis reaction with the substance as substrate, heat resistant maltose phosphorylase
Experimental: as §1, §2

[4] = biological target: T2, heat resistant trehalose phosphorylase; experiment: Substrate specificity of heat resistant trehalose phosphorylase (phosphorolysis reaction, glucose formed); type: biochemical, Bacillus stearothermophilus SK-1; parameters: Relative activity (%): concentration or dose not given beside the values; settings: for Relative activity (%): each substance as substrate of phosphorolysis by heat resistant trehalose phosphorylase, trehalose = 100; for formation of glucose: phosphorolysis reaction with the substance as substrate, heat resistant trehalose phosphorylase
Description: As the heat resistant maltose phosphorylase in the above process, there can be used the same ones as in the above process for preparation of β-glucose-1-phosphoric acid can be used. As the heat resistant trehalose phosphorylase, any one can be used so long as it can produce trehalose from maltose and phosphoric acid or a phosphate salt at one of the above reaction temperatures and at one of the above pH values, with the aid of the heat resistant maltose phosphorylase. However, there can, preferably, be used heat resistant trehalose phosphorylase having an activity of 95% or more of the one untreated after treated in a buffer of pH 6.0, at one temperature of 50° to 65° C., preferably at one temperature of 55° to 65° C., further preferably at one temperature of 60° to 65° C., particularly preferably at 65° C., for 15 minutes. As an example of heat resistant trehalose phosphorylase having such a property, there can be mentioned heat resistant trehalose phosphorylase which Bacillus stearothermophilus SK-1 found by the present inventors produces. The SK-1 strain was first deposited on Sep. 29, 1994 with National Institute of Bioscience and Human Technology, Agency of Industrial Science and Technology, the Ministry of International Trade and Industry, Japan under an accession number of FERM P-14567, and then transferred there to deposit according to Budapest Treaty on microorganisms on Jul. 17, 1996, and is assigned an accession number of FERM BP-5594. An example of preparation of the above heat resistant trehalose phosphorylase is shown in Example 4 (crude enzyme) and Reference example 1 (purified enzyme). The enzymological properties of this purified enzyme are as follows.
as §3

[5] = maltose phosphorylase activity with 1 mM inhibitor, no addition = 100
[6] = trehalose phosphorylase activity with 1 mM inhibitor, no addition = 100

T1 sequence (Q84IX5 entry or part of it, change not shown): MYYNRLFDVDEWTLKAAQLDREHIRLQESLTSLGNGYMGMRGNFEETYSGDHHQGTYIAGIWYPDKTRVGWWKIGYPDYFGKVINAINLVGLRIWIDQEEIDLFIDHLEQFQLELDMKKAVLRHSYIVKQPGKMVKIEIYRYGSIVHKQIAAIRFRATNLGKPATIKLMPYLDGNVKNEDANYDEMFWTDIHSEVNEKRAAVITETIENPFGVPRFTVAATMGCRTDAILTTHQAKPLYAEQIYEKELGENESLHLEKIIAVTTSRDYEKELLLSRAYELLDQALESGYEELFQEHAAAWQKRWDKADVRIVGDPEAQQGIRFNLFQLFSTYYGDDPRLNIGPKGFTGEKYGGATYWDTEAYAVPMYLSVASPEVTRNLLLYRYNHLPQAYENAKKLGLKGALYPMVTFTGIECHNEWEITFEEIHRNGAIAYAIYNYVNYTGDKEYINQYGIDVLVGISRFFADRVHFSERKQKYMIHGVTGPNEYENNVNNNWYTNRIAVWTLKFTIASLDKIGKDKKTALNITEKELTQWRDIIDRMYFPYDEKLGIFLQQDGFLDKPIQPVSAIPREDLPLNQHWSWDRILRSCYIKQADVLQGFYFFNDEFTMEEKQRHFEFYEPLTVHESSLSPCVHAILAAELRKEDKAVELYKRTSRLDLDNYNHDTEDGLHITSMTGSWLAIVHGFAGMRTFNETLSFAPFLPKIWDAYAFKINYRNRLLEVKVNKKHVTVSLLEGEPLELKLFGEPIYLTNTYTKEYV
T2 sequence (Q8GRC3 whole entry, change not shown): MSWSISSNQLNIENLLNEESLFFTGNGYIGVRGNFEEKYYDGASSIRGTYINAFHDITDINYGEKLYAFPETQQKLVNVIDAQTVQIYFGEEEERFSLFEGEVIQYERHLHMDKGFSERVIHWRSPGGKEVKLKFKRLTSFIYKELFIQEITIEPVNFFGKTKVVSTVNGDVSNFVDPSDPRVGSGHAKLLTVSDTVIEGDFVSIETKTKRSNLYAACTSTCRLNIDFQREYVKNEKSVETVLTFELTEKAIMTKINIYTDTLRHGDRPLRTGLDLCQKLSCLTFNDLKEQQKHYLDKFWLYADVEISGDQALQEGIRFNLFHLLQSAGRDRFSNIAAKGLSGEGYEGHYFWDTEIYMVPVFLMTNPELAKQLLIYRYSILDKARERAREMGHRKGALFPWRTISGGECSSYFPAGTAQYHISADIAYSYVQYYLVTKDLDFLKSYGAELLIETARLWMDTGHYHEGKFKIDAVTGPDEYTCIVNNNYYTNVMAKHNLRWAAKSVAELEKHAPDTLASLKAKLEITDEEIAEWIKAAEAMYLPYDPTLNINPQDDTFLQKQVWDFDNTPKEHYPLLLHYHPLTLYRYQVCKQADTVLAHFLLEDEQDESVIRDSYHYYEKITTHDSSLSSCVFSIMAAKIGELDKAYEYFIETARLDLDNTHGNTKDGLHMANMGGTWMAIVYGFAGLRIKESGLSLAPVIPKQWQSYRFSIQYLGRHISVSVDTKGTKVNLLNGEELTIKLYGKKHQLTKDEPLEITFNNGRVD

| Compound | Relative activity (%) [1, 5] [%] | Relative activity (%) [2, 6] [%] | Relative activity (%) [3] [%] | Relative activity (%) [4] [%] | further results |
| --- | --- | --- | --- | --- | --- |
| O[C@H](CS)[C@H](O)CS (racemic) [DTT, Dithiothreitol] | – | – | – | – | activity at 1000 µM [1, 5]: 101%; activity at 1000 µM [2, 6]: 86% |
| [Ba+2].[OH-].[OH-] [Ba (OH)2] | 100 | 106 | – | – | – |
| [Ca+2].[Cl-].[Cl-] [CaCl2] | 101 | 102 | – | – | – |
| OC[C@H]1O[C@@H](O[C@H]2[C@H](O)[C@@H](O)C(O)O[C@@H]2CO)[C@H](O)[C@@H](O)[C@@H]1O (stereo partly drawn) [Cellobiose] | – | – | 0 | 2 | formation of glucose [3]: scarcely observed; formation of glucose [4]: scarcely observed |
| O=S(=O)([O-])[O-].[Cu+2] [CuSO4] | 91 | 89 | – | – | – |
| O=[N+]([O-])c1ccc(O[C@H]2O[C@H](CO)[C@@H](O)[C@H](O)[C@H]2O)cc1 [D - glucosideyl - α, p-nitrophenyl-α-D-glucoside] | – | – | 0 | 2 | formation of glucose [3]: scarcely observed; formation of glucose [4]: scarcely observed |
| O=[N+]([O-])c1ccc(O[C@@H]2O[C@H](CO)[C@@H](O)[C@H](O)[C@H]2O)cc1 [D - glucosideyl - β, p-nitrophenyl-β-D-glucoside] | – | – | 0 | 2 | formation of glucose [3]: scarcely observed; formation of glucose [4]: scarcely observed |
| O=C(O)CN(CCN(CC(=O)O)CC(=O)O)CC(=O)O [EDTA.2Na] | – | – | – | – | activity at 1000 µM [1]: 100% |
| O=C(O)CN(CCN(CC(=O)O)CC(=O)O)CC(=O)O [EDTA] | – | – | – | – | activity at 1000 µM [2]: 99% |
| [Cl][Fe][Cl] [FeCl2] | 94 | 96 | – | – | – |
| OC[C@H]1O[C@@H](OC[C@H]2OC(O)[C@H](O)[C@@H](O)[C@@H]2O)[C@H](O)[C@@H](O)[C@@H]1O (stereo partly drawn) [Gentiobiose] | – | – | 2 | – | – |
| [Cl][Hg][Cl] [HgCl2] | 1 | 1 | – | – | inhibition of the activity [1]: 99%; inhibition of the activity [2]: 99% |
| OC[C@H]1O[C@H](OC[C@H]2OC(O)[C@H](O)[C@@H](O)[C@@H]2O)[C@H](O)[C@@H](O)[C@@H]1O (stereo partly drawn) [Isomaltose] | – | – | 2 | 3 | formation of glucose [3]: scarcely observed; formation of glucose [4]: scarcely observed |
| OC[C@H]1O[C@@H](O[C@H]2[C@H](O)[C@@H](O)C(O)O[C@@H]2CO)[C@H](O)[C@@H](O)[C@H]1O (stereo partly drawn) [Lactose] | – | – | 0 | – | – |
| OC[C@H]1O[C@H](O[C@H]2[C@H](O)[C@@H](O)[C@H](O)O[C@@H]2CO)[C@H](O)[C@@H](O)[C@@H]1O [Maltose] | – | – | 100 | 1 | formation of glucose [4]: scarcely observed |
| OCCS [Mercaptoethanol] | – | – | – | – | activity at 1000 µM [1, 5]: 94%; activity at 1000 µM [2, 6]: 96% |
| [Cl-].[Cl-].[Mg+2] [MgCl2] | 100 | 103 | – | – | – |
| O=S(=O)([O-])[O-].[Mn+2] [MnSO4] | 111 | 108 | – | – | – |
| OC[C@H]1O[C@@H](O[C@H]2O[C@H](CO)[C@@H](O)[C@H](O)[C@H]2O)[C@H](O)[C@@H](O)[C@@H]1O [Neotrehalose] | – | – | 0 | 1 | formation of glucose [3]: scarcely observed; formation of glucose [4]: scarcely observed |
| O=C(O)c1cc[c]([Hg][Cl])cc1 [PCMB, p (Chloromercuri) benzoic acid] | 20 | 0 | – | – | – |
| CC(=O)[O-].CC(=O)[O-].[Pb+2] [Pb (CH3 COO)2] | 99 | 93 | – | – | – |
| OC[C@H]1O[C@@](CO)(O[C@H]2O[C@H](CO)[C@@H](O)[C@H](O)[C@H]2O)[C@@H](O)[C@@H]1O [Sucrose] | – | – | 0 | 1 | formation of glucose [3]: scarcely observed; formation of glucose [4]: scarcely observed |
| OC[C@H]1O[C@H](O[C@H]2O[C@H](CO)[C@@H](O)[C@H](O)[C@H]2O)[C@H](O)[C@@H](O)[C@@H]1O [Trehalose] | – | – | 0 | 100 | formation of glucose [3]: scarcely observed |
| O=S(=O)([O-])[O-].[Zn+2] [ZnSO4] | 63 | 20 | – | – | inhibition of the activity [1]: 37%; inhibition of the activity [2]: 80% |
| Soluble starch | – | – | 2 | – | – |
